Laboratory results: patent US20200030388A1, “COMPOSITIONS FOR MODIFYING GUT MICROBIOTA” (priority 2017, published 2020)
“And” between values parts separate entries of the source, which are not always exact repeats. Identical values can stand only once. Marks after values point to notes of the source that are not given here.

Experiments:
[1] = tested on: HFD-Induced Obese Mice (C57BL/6); experiment: GAR, FOR, LMIX, HMIX in HFD-induced obese mice, 12 weeks (Example 4)
Description: Four-week-old, male C57BL/6 mice were purchased from the BioLASCO Experimental Animal Center (Taiwan Co., Ltd., Taipei, Taiwan) and housed in a controlled atmosphere (25±1° C. at 50% relative humidity) with a 12 h light/12 h dark cycle. After 1 week of acclimation, animals were randomly distributed into 6 groups as follows: normal diet (ND, 15% energy from fat), high-fat diet (HFD, 50% energy from lard-based fat), and HFD supplemented with 0.01% garcinol (GAR group), 0.025% Forskolin (FOR group), 0.005% GAR+0.025% FOR (LMIX group), and 0.01% Gar+0.025% For (HMIX group) for 12 weeks. […] Animals had free access to food and water. Food consumption was monitored daily and the body weight was recorded weekly. At the end of the experiments, all animals were sacrificed by CO2 asphyxiation. Blood samples were collected from the heart for biochemical analysis. The liver, spleen, kidney, fat pads (perigonadal, retroperitoneal, and mesenteric fat), and fresh fecal pellets were immediately removed and stored at −80° C. until further analysis.
Liver and the perigonadal adipose tissue were dissected and fixed in 10% buffered formalin for at least 24 h, dehydrated with a sequence of ethanol solutions, and processed for embedding in paraffin. Sections of 4 μm in thickness were cut, deparaffinized, rehydrated, stained with hematoxylin and eosin (H&E), and subjected to photo microscopic observation. Adipocyte size was measured at 100× magnification and determined by Image J software (U. S. National Institutes of Health, Bethesda, Md., USA).

[2] = tested on: High Fat Diet Induced Obesity in C57 Mice; experiment: High fat diet induced obesity in C57 mice, 16 weeks (Example 1); format: in vivo, mouse; details: for Change in weight / Final weight / Kidney weight / Pancreas Weight / Spleen Weight / Mesenteric Fat / Peri-gonadal Fat / Retroperitoneal Fat: HFD; for Change in weight / Final weight / Mesenteric Fat / Peri-gonadal Fat / Retroperitoneal Fat: 120 days
Description: C57/BL6 mice, 6-8 weeks of age and 8 animals/Group (4 Male and 4 Female) were used for the study. Animals were housed under standard laboratory conditions, air-conditioned with adequate fresh air supply (12-15 Air changes per hour), room temperature 20.2-23.5° C. and relative humidity 58-64% with 12 hours fluorescent light and 12 hours dark cycle. The temperature and relative humidity was recorded once daily.
The animals were fed with Normal diet (9 kcal/day) and High fat diet (50 kcal/day) throughout the acclimatization and experimental period.
The design of the study groups is depicted in table 2.
Body weight of the animals was recorded in all the days of experimental period. At the end of the experimental period, the animals were sacrificed by cervical dislocation. Blood was collected and Serum was separated by centrifugation and used for the analysis of biochemical parameters. The organs such as Liver Kidney, Spleen and Pancreas and Fat Tissues (Retroperitoneal, Peri-gonadal and Mesenteric) were dissected out and washed in phosphate buffered saline.
The following parameters were measured in the above groups: • Measurement of Body weight • Determination of Organ Weight • Estimation of Cholesterol (Zak et al., ([…]) A new method for the determination of serum cholesterol. J Clin Endocrinol Metab., 94(7), 2215-2220) • Estimation of Triglycerides (Foster L. B and Dunn R. T. (1973) Stable reagents for determination of serum triglycerides by a colorimetric Hantzsch condensation method. Clin Chem. 196, 338-340). • Estimation of HDL Cholesterol (Burstein et al., (1970). Determination of HDL cholesterol. J. lipid Res., 11, 583). • Determination of LDL and VLDL (Friedewald et al., (1972) Estimation of the concentration of Low Density Lipoprotein cholesterol in plasma without use of preparative centrifuge. J. Clin Chem.; 18:499).

[3] = tested on: Mouse 3T3-L1 pre-adipocytes; experiment: Adipogenesis inhibition in 3T3-L1 cells, Oil red O staining; format: cell-based; details: 3T3-L1 adipocytes, read-out: inhibition of lipid accumulation
Description: Garcinol (20%) stock of 10 mg/ml was prepared in DMSO and filtered through 0.2 micron syringe filter. Stock was diluted 1000 times in DMEM to get 10 μg/ml final concentration and serially diluted. Insulin (Hi Media) was bought as a solution at a concentration of 20 mg/ml. This was diluted to 1 μg/ml in DMEM. IBMX-(Sigma)—Stock of 5 mM was prepared in DMEM, and diluted 10 times to be used at a final concentration of 0.5 mM. Dexamethasone (Sigma)—A stock of […] was prepared in DMEM and diluted 40 times to get a final concentration of 0.25 μM
Mouse 3T3-L1 pre-adipocytes were cultured in DMEM containing 25 mM glucose with 10% heat-inactivated fetal calf serum with antibiotics at 37° C. and 5% CO2. When the cells were 70-80% confluent, they were trypsinized, washed and seeded in 6 well plates at a density of 2×10^6 cells per well. Cells were induced to differentiate 2 d after reaching confluence (day 0), by supplementing DMEM media containing 10% Fetal Bovine Serum (FBS) along with 1 μg/mL insulin, 0.25 μM dexamethasone, 0.5 mM 1-methyl-3-isobutyl-xanthine (IBMX) and different concentrations of Garcinol (20%). From day 3 until day 7, cells were maintained in progression media supplemented with 1 μg/mL insulin and different concentrations of Garcinol (20%). […] Quantification for amount of triglycerides accumulated in adipocytes was done by Oil red O staining.

[4] = tested on: HFD-induced Obesity in C57BL/6 mice; experiment: HFD-induced obesity in C57BL/6 mice, 13 weeks (Example 2); format: in vivo, mouse; details: for GPT / HDL / LDL / LDL/HDL / T-CHO / TG: plasma; for percentage frequency of adipocytes, Adipocyte Size area 2000 / percentage frequency of adipocytes, Adipocyte Size area 15000 / percentage frequency of adipocytes, Adipocyte Size area >350000: perigonadal adipose tissue
From the text: After one week of acclimation, animals were randomly distributed into normal diet (ND, 15% energy as fat), HFD (50% energy as fat), and HFD with 0.1% or 0.5% garcinol groups of eight mice in each group for 13 weeks. The experimental diets were modified from the Purina 5001 diet (LabDiet, PMI Nutrition International, St. Louis, Mo., USA). The animals had ad libitum access to food and water. Food cups were replenished with a fresh diet every day. […] Upon termination of the study, the animals were sacrificed by CO2 asphyxiation and dissected, and the weights of their whole bodies and selected tissues, including the liver, kidney, spleen, adipose tissues (perigonadal, retroperitoneal, and mesenteric fat) and serum were immediately collected, weighed, and photographed.
Sections of 3-5 μm in thickness were cut, deparaffinized, rehydrated, stained with H&E, and subjected to photomicroscopic assessment. Adipocyte size was determined using Image J software (Rasband, W. S., ImageJ, U.S. National Institutes of Health, Bethesda, Md., USA).
Blood samples were collected from the left ventricle under anesthesia. The samples were mixed in 10 μL of heparin sodium and centrifuged at 3500 rpm and 4° C. for 10 min. The plasma was then stored at −80° C. until use. Glutamic-pyruvic transaminase (GPT), total cholesterol (TC), TG, high-density lipoprotein (HDL), and low-density lipoprotein (LDL) levels were analyzed at the National Laboratory Animal Center, NLAC (Taipei, Taiwan) on a 7080 Biochemical Analyzer (Hitachi, Tokyo, Japan) according to the manufacturer's instructions.

[5] = tested on: Gut Microbiota in HFD-Fed Mice; experiment: Gut microbiota classification by next generation sequencing (Example 4); format: in vivo, mouse
Description: Total DNA was extracted from fresh fecal samples by using the innuPREP Stool DNA kit (Analytik Jena AG, Jena, Germany) according to the manufacturer's instructions. According to the concentration, DNA was diluted to 1 ng μ L^−1 using sterile water. 6SrRNA/18SrRNA/ITS genes of distinct region (16SV4/16SV3/16SV3-V4/16SV4-V5, 18S V4/18S V9, ITS1/ITS2, Arc V4) were amplified using a specific primer (e.g. 16SV4: 515F-806R, 18S V4: 528F-706R, and 18S V9: 1380F-1510R) with a barcode. All PCR reactions were carried out using a Phusion® High-Fidelity PCR master mix (New England Biolabs, Ipswich, Mass., USA). The PCR products were mixed in ratios of equal density. Then, the mixed PCR products were purified using a Qiagen gel extraction kit (Qiagen, Hilden, Germany). Sequencing libraries were generated using the TruSeq® DNA PCR-free sample preparation kit (Illumina, San Diego, Calif., USA) following the manufacturer's recommendations, and index codes were added. The library quality was assessed using the Qubit@ 2.0 Fluorometer (Thermo Scientific) and Agilent Bioanalyzer 2100 system. Lastly, the library was sequenced using an Illumina HiSeq 2500 platform, and 250 bp paired-end reads were generated. The classification was based on the Greengenes database (https://greengenes.lbl.gov/).

[6] = tested on: HFD-fed C57BL/6 male mice; experiment: Garcinol versus garcinol blend in HFD-fed C57BL/6 mice, 16 weeks (Example 3); format: in vivo, mouse
Description: The present invention studied the anti-obesity effects of garcinol compared to a composition comprising garcinol, pterostilbene and anthocyanin (garcinol blend (GB) in mammals. The study was conducted in vivo on 5 weeks old C57BL/6 male mice. A total of 42 mice were involved in this study with 6 groups of 7 mice each. The groups were divided as in table 8.
The high fat diet (HFD) groups were fed 45% high fat diet for 16 weeks for the induction of obesity and concurrently administered the test substance as indicated in the aforesaid table. The normal group was fed with normal diet for 16 weeks.
Body weight was monitored weekly, and the average body weight of each group (n=7) was expressed as the means±SE.

## C=C(C)[C@@H](CC=C(C)C)C[C@@]12C[C@@H](CC=C(C)C)C(C)(C)[C@@](CC=C(C)C)(C(=O)C(C(=O)c3ccc(O)c(O)c3)=C1O)C2=O [garcinol]
[1]; 0.01% GAR, 0.025% FOR, LMIX, HMIX
  Weight gain: 12.7 ± 2.0^b g
[1]; 0.01% GAR, 0.025% FOR, LMIX, HMIX, listed as GAR
  Final weight: 34.4 g and 34.4 ± 2.6^b g
[1]; organ weight
  Kidney: 0.4 ± 0.03^a g
  Liver: 1.6 ± 0.2^b g
  Spleen: 0.06 ± 0.01^a g
[2]; G5: garcinol 5 mg/kgbw
  Change in weight: 10.03 ± 2.25 g
  Final weight: 29.33 ± 1.47 g
[2]; G10: garcinol 10 mg/kgbw
  Change in weight: 10.25 ± 1.39 g
  Final weight: 28.25 ± 1.39 g
[2]; G20: garcinol 20 mg/kgbw
  Change in weight: 7.62 ± 2.18 g
  Final weight: 27.37 ± 1.88 g
[2]; G40: garcinol 40 mg/kgbw
  Change in weight: 6.28 ± 1.03 g
  Final weight: 26.00 ± 1.33 g
[2]; Group III: garcinol 5 mg/kgbw
  Kidney weight: 0.49 ± 0.03 g wet tissue
  Pancreas Weight: 0.23 ± 0.01 g wet tissue
  Spleen Weight: 0.25 ± 0.02 g wet tissue
  Mesenteric Fat: 0.63 ± 0.07 g wet tissue
  Peri-gonadal Fat: 1.33 ± 0.32 g wet tissue
  Retroperitoneal Fat: 0.45 ± 0.06 g wet tissue
[2]; Group IV: garcinol 10 mg/kgbw
  Kidney weight: 0.42 ± 0.03 g wet tissue
  Pancreas Weight: 0.17 ± 0.01 g wet tissue
  Spleen Weight: 0.20 ± 0.01 g wet tissue
  Mesenteric Fat: 0.56 ± 0.05 g wet tissue
  Peri-gonadal Fat: 1.17 ± 0.22 g wet tissue
  Retroperitoneal Fat: 0.43 ± 0.05 g wet tissue
[2]; Group V: garcinol 20 mg/kgbw
  Kidney weight: 0.45 ± 0.06 g wet tissue
  Pancreas Weight: 0.21 ± 0.02 g wet tissue
  Spleen Weight: 0.22 ± 0.03 g wet tissue
  Mesenteric Fat: 0.601 ± 0.08 g wet tissue
  Peri-gonadal Fat: 1.35 ± 0.21 g wet tissue
  Retroperitoneal Fat: 0.46 ± 0.06 g wet tissue
[2]; Group VI: garcinol 40 mg/kgbw
  Kidney weight: 0.42 ± 0.04 g wet tissue
  Pancreas Weight: 0.22 ± 0.02 g wet tissue
  Spleen Weight: 0.23 ± 0.02 g wet tissue
  Mesenteric Fat: 0.59 ± 0.05 g wet tissue
  Peri-gonadal Fat: 1.41 ± 0.14 g wet tissue
  Retroperitoneal Fat: 0.46 ± 0.04 g wet tissue
[2]; kidney, spleen, pancreas, Table 5
  weight of the organs (adverse effects): did not adversely affect
[3]; 5 μg/ml
  inhibition at 5 µg/mL: 47.8%
[3]; 10 μg/ml
  inhibition at 10 µg/mL: 47.2%
[4]; 0.5% garcinol, HFD, 13 weeks
  decrease of mesenteric fat weight compared to the HFD group: 77.7%
  decrease of perigonadal fat weight compared to the HFD group: 85.1%
  decrease of retroperitoneal fat weight compared to the HFD group: 92.4%
[4]; HFD + 0.1% Gar
  GPT: 20.5 ± 7.26^b U/L
  HDL: 152.6 ± 9.73^a mg/dL
  LDL: 33.3 ± 0.72^b mg/dL
  LDL/HDL: 0.22 ± 0.02^b
  T-CHO: 179.7 ± 11.85^b mg/dL
  TG: 69.6 ± 19.90^ab mg/dL
[4]; HFD + 0.1% garcinol
  percentage frequency of adipocytes, Adipocyte Size area 2000: 8.38 ± 5.3^b
  percentage frequency of adipocytes, Adipocyte Size area 15000: 4.03 ± 1.0^a
  percentage frequency of adipocytes, Adipocyte Size area >350000: 3.32 ± 1.5^b
[4]; HFD + 0.5% Gar
  GPT: 27.6 ± 3.72^ab U/L
  HDL: 118.7 ± 13.22^b mg/dL
  LDL: 24.9 ± 4.47^c mg/dL
  LDL/HDL: 0.21 ± 0.03^b
  T-CHO: 137.9 ± 11.78^c mg/dL
  TG: 55.6 ± 4.95^b mg/dL
[4]; HFD + 0.5% garcinol
  percentage frequency of adipocytes, Adipocyte Size area 2000: 19.2 ± 3.9^a
  percentage frequency of adipocytes, Adipocyte Size area 15000: 1.36 ± 0.9^b
  percentage frequency of adipocytes, Adipocyte Size area >350000: 0.00 ± 0.0^c
[5]; 12 weeks (HFD group 43.0%)
  abundance of Firmicutes: 33.9%
[5]; 12 weeks (HFD group 50.2%)
  abundance of Bacteroidetes: 62.4%
[5]; 12 weeks, FIG. 23A
  OTUs difference between ND and HFD groups (Venn diagram): 26 OTUs
[6]; HFD + 0.1% test substance
  Final weight: 32.1 ± 2.6^b g
  Weight gain: 10.5 ± 2.1^b g
[6]; HFD + 0.5% test substance
  Final weight: 25.4 ± 0.8^b g
  Weight gain: 3.9 ± 0.6^b g
